In brackets after ≈: the same amount, converted by molar mass.
What was measured:
[1] = AUC (0 to 8 hrs) in male Sprague-Dawley rat at 0.1 mg/kg, po measured upto 8 hrs by LC-MS/MS analysis; format: ADME, organism-based; details: in vivo
[2] = AUC (0 to 8 hrs) in male Sprague-Dawley rat at 0.1 mg/kg, iv measured upto 8 hrs by LC-MS/MS analysis; format: ADME, organism-based; details: in vivo
[3] = Tmax in male Sprague-Dawley rat at 0.1 mg/kg, po measured […] by LC-MS/MS analysis; format: ADME, organism-based; details: in vivo
[4] = Total clearance in male Sprague-Dawley rat at 0.1 mg/kg, iv measured upto 8 hrs by LC-MS/MS analysis; format: ADME, organism-based; details: in vivo
[5] = target: Albumin (Homo sapiens, UniProt P02768); assay: Binding affinity to serum albumin in human plasma; format: ADME, cell-free
Sequence of Albumin (P02768 whole entry): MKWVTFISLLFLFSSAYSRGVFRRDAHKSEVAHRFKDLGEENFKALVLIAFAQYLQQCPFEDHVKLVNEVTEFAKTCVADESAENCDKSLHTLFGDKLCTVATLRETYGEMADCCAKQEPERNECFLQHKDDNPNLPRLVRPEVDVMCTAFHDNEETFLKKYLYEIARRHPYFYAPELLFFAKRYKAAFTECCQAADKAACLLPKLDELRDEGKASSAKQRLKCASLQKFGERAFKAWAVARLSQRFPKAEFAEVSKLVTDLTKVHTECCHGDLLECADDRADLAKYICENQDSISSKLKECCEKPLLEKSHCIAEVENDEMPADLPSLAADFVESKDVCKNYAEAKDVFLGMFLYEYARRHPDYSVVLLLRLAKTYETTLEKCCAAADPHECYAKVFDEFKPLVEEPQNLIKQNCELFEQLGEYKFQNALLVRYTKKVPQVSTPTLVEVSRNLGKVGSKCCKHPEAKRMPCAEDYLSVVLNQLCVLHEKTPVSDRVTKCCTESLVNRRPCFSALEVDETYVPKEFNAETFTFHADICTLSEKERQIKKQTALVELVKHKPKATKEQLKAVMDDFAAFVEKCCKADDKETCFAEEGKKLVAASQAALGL

[6] = Volume of distribution at steady state in male Sprague-Dawley rat at 0.1 mg/kg, iv measured upto 8 hrs by LC-MS/MS analysis; format: ADME, organism-based; details: in vivo
[7] = Cmax in male Sprague-Dawley rat at 0.1 mg/kg, po measured upto 8 hrs by LC-MS/MS analysis; details: in vivo
[8] = Oral bioavailability in male Sprague-Dawley rat at 0.1 mg/kg measured upto 8 hrs by LC-MS/MS analysis; format: ADME, organism-based; details: in vivo
[9] = C0 in male Sprague-Dawley rat at 0.1 mg/kg, iv measured upto 8 hrs by LC-MS/MS analysis; details: in vivo
[10] = Plasma protein binding in rat assessed as unbound fraction at 1 uM incubated for 6 hrs by LC/MS/MS based equilibrium dialysis method; format: ADME, cell-free
[11] = Solubility of compound at pH 6.8 incubated for 4 hrs by HPLC or LC-MS/MS analysis; format: physicochemical; details: buffer, pH 6.8, 4 h
[12] = Solubility of compound at pH 1.2 incubated for 4 hrs by HPLC or LC-MS/MS analysis; format: physicochemical; details: buffer, pH 1.2, 4 h
[13] = target: Transthyretin (Homo sapiens, UniProt P02766, V50M); assay: Binding affinity to TTR V30M mutant (unknown origin) assessed as dissociation constant by ITC analysis
[14] = target: Transthyretin (Homo sapiens, UniProt P02766); assay: Binding affinity to TTR in human plasma assessed as target occupancy incubated for 6 hrs in presence of E)-S-phenyl 3-(4-hydroxy-3,5-dimethyistyryl)benzothioate by fluorescence based competitive binding assay; format: cell-free
[15] = pampa, 4 h, 500 µM

| SMILES | AUC [1] [ng·h/mL] | AUC [2] [ng·h/mL] | Tmax [3] [h] | CL [4] [mL/min/kg] | Activity [5] | Vdss [6] [L/kg] | Cmax [7] [ng/mL] | bioavailability [8] [%] | C0 at 8 h [9] [ng/mL] | Fu [10] [%] | solubility [11] [µM] | solubility [12] [µM] | Kd [13] [µM] | EC50 [14] [µM] | permeability [15] |
| --- | --- | --- | --- | --- | --- | --- | --- | --- | --- | --- | --- | --- | --- | --- | --- |
| O=C(O)c1ccc2nc(-c3cc(Cl)cc(Cl)c3)oc2c1 | 1500 | 2363 | 4 | 0.0993 | Active | 0.311 | 235 | 63.5 | 519 |  |  |  |  |  |  |
| CCc1oc2cccc(Cl)c2c1C(=O)c1cc(I)c(O)c(I)c1 | 2524 | 3726 | 4 | 0.343 |  | 0.112 | 395 |  | 1720 | < 0.01 | > 100 | < 0.01 |  |  |  |
| CCc1oc2cccc(I)c2c1C(=O)c1cc(I)c(O)c(I)c1 | 1489 | 2961 | 4 | 0.405 | Active | 0.153 | 240 |  | 1540 | < 0.01 | > 100 | < 0.02 |  |  |  |
| CCc1oc2cccc(C)c2c1C(=O)c1cc(I)c(O)c(I)c1 | 1918 | 3102 | 4 | 0.44 |  | 0.123 | 303 |  | 1640 | < 0.01 | > 100 | < 0.01 |  |  |  |
| CCc1oc2c(Cl)ccc(Cl)c2c1C(=O)c1cc(I)c(O)c(I)c1 | 350 | 1746 | 4 | 0.662 |  | 0.269 | 77 |  | 1340 | < 0.01 | 89.5 (≈ 52.5 µg/mL) | < 0.02 |  |  |  |
| CCc1oc2cccc(Br)c2c1C(=O)c1cc(I)c(O)c(I)c1 | 2476 | 3708 | 4 | 0.343 |  | 0.113 | 390 |  | 1740 | < 0.01 | > 100 | 0.054 (≈ 0.0322 µg/mL) |  |  |  |
| CCc1oc2ccccc2c1C(=O)c1cc(I)c(O)c(I)c1 [BENZIODARONE] |  |  |  |  | Active |  |  |  |  |  |  |  | 0.078 | 8.9 |  |
| COCCc1ccc(OCC(O)CNC(C)C)cc1 (stereo not given) [METOPROLOL] |  |  |  |  |  |  |  |  |  |  |  |  |  |  | 1.8 10^-6 cm/s |
| O=C(O)c1cc(/N=N/c2ccc(S(=O)(=O)Nc3ccccn3)cc2)ccc1O [SULFASALAZINE] |  |  |  |  |  |  |  |  |  |  |  |  |  |  | 0.038 10^-6 cm/s |

— ChEMBL document CHEMBL5543166, “Development of Benziodarone Analogues with Enhanced Potency for Selective Binding to Transthyretin in Human Plasma” (J Med Chem, 2024)
